Assay results published in patent US20110319392A1, “Thiazole Sulfonamide And Oxazole Sulfonamide Kinase Inhibitors” (priority 2009, published 2011).
pIC50: −log10 of the molar value. Counter-ions that a name gives are not always drawn.

Legend:
EGFR = target: T1, EGFR (Homo sapiens, UniProt P00533); assay: EGFR substrate phosphorylation assay (HTRF); type: biochemical
T1 construct: made in house; host or cells: baculovirus expression system
Summary of the method: (§1)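 Baculovirus-expressed EGFR (0.8 nM) or ErbB2 (10 nM) in enzyme mix, preincubated 1 h at 20 °C with compound (0.00027–47.6 μM final), then 90 min at 20 °C with substrate mix of 20 μM ATP, 0.8 uM biotinylated Peptide C, MnCl2, MOPS pH 7.5. Phosphotyrosine by HTRF; pIC50 reported.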

ErbB2 = target: T2, ErbB2 (Homo sapiens, UniProt P04626); assay: ErbB-2 substrate phosphorylation assay (HTRF); type: biochemical
T2 construct: made in house; host or cells: baculovirus expression system
T2 sequence (P04626 23-1255): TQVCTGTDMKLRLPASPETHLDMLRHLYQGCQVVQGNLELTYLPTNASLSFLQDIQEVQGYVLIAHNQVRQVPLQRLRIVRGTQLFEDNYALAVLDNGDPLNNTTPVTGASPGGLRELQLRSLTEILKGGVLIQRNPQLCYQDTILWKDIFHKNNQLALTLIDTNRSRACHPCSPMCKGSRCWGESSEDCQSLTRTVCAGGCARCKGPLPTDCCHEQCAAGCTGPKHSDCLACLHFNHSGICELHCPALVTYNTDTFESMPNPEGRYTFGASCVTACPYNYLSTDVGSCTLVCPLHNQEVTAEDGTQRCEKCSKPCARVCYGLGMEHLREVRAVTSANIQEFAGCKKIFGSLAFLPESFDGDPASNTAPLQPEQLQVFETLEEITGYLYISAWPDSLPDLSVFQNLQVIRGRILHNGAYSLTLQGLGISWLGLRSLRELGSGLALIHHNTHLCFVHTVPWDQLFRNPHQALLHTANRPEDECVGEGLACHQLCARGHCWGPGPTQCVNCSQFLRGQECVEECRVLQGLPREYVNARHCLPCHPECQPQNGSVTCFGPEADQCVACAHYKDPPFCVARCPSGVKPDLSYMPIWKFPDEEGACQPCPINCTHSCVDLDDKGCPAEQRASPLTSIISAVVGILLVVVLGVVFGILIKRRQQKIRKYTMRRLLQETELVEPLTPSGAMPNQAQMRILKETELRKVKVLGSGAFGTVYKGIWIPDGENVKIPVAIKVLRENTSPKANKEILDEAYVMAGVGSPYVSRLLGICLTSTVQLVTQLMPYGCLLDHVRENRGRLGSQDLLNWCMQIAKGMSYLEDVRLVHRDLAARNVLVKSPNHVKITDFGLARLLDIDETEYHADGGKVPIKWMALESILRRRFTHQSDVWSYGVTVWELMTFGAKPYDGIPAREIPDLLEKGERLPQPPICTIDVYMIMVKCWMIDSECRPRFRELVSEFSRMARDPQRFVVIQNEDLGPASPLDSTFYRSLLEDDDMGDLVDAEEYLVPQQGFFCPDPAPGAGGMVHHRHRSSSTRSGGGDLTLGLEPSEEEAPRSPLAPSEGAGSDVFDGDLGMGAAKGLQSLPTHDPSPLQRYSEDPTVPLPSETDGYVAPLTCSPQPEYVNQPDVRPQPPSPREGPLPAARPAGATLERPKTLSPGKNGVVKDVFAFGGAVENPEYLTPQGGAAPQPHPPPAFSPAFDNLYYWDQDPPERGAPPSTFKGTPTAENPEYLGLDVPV
Summary of the method: as §1

T1 sequence (P00533 25-1210): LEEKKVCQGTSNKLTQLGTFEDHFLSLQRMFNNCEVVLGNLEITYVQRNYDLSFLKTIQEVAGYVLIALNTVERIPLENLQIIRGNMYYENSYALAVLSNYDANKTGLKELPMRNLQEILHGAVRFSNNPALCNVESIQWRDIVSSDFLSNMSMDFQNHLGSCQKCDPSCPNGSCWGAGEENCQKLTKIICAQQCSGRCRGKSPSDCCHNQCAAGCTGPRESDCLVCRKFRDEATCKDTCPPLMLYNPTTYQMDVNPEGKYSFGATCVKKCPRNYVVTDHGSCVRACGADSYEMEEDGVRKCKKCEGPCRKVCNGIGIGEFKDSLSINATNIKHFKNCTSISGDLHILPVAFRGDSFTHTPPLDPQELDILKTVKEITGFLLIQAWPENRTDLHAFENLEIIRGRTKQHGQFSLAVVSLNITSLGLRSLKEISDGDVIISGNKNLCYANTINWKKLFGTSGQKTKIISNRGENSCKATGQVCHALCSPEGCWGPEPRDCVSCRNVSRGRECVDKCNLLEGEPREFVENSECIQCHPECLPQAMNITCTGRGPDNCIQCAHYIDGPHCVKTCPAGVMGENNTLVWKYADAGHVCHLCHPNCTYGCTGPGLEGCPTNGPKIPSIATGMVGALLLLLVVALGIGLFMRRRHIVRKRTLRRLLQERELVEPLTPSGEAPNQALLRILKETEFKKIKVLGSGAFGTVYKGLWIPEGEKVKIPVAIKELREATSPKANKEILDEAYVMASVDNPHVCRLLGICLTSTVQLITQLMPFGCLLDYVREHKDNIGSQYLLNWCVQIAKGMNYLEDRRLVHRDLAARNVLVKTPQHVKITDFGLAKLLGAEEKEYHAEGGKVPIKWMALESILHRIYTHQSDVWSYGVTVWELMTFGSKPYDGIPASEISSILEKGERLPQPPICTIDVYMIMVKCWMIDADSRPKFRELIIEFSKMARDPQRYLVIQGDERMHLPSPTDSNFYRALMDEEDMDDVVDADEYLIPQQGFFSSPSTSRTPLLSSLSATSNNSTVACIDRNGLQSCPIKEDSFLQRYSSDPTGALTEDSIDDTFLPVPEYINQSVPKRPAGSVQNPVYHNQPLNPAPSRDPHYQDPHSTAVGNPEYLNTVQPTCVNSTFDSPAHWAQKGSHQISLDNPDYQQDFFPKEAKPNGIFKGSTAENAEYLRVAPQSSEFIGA

Row | Compound | pIC50 (EGFR) | pIC50 (ErbB2)
1 | CCNc1nc(-c2cccc(NS(=O)(=O)c3ccccc3)c2)c(-c2ccnc(Nc3ccc(OCCN4CCCC4)c(F)c3)n2)s1 [Example 1, N-(3-(2-(Ethylamino)-5-{2-[(3-fluoro-4-[[2-(1-pyrrolidinyl)ethyl]oxy}phenyl)amino]-4-pyrimidinyl}-1,3-thiazol-4-yl)phenyl]benzenesulfonamide] | > 7.00 | 6.00 to 7.00
2 | COCCN1CCN(c2ccc(Nc3nccc(-c4sc(C(C)C)nc4-c4cccc(NS(=O)(=O)c5ccccc5)c4)n3)cn2)CC1 [Example 6, N-[3-(2-(1-Methylethyl)-5-{2-[(6-{4-[2-(methyloxy)ethyl]-1-piperazinyl}-3-pyridinyl)amino]-4-pyrimidinyl}-1,3-thiazol-4-yl)phenyl]benzenesulfonamide] | < 6.00 | 6.00 to 7.00
3 | CC(C)c1nc(-c2cccc(NS(=O)(=O)c3ccccc3)c2)c(-c2ccnc(Nc3ccc(N4CCOCC4)nc3)n2)s1 [Example 8, N-{3-[2-(1-Methylethyl)-5-(2-{[6-(4-morpholinyl)-3-pyridinyl]amino}-4-pyrimidinyl)-1,3-thiazol-4-yl]phenyl}benzenesulfonamide hydrochloride] | 6.00 to 7.00 | < 6.00
4 | COc1ccc(Nc2nccc(-c3sc(C(C)C)nc3-c3cccc(NS(=O)(=O)c4ccccc4)c3)n2)cc1N1CCN(CCC#N)CC1 [Example 9, N-{3-[5-(2-{[3-[4-(2-Cyanoethyl)-1-piperazinyl]-4-(methyloxy)phenyl]amino}-4-pyrimidinyl)-2-(1-methylethyl)-1,3-thiazol-4-yl]phenyl}benzenesulfonamide] | > 7.00 | > 7.00
5 | CC(=O)N1CCN(c2ccc(Nc3nccc(-c4sc(C(C)C)nc4-c4cccc(NS(=O)(=O)c5ccc(F)cc5)c4)n3)cn2)CC1 [Example 10, N-{3-[5-(2-{[6-(4-Acetyl-1-piperazinyl)-3-pyridinyl]amino}-4-pyrimidinyl)-2-(1-methylethyl)-1,3-thiazol-4-yl]phenyl}-4-fluorobenzenesulfonamide] | < 6.00 | < 6.00
6 | CC(=O)N1CCN(c2ccc(Nc3nccc(-c4sc(C(C)C)nc4-c4cccc(NS(=O)(=O)c5cccc(F)c5)c4)n3)cn2)CC1 [Example 11, N-{3-[5-(2-{[6-(4-Acetyl-1-piperazinyl)-3-pyridinyl]amino}-4-pyrimidinyl)-2-(1-methylethyl)-1,3-thiazol-4-yl]phenyl}-3-fluorobenzenesulfonamide] | 6.00 to 7.00 | 6.00 to 7.00
7 | CC(=O)N1CCN(c2ccc(Nc3nccc(-c4sc(C(C)C)nc4-c4cccc(NS(=O)(=O)c5ccccc5F)c4)n3)cn2)CC1 [Example 12, N-{3-[5-(2-{[6-(4-Acetyl-1-piperazinyl)-3-pyridinyl]amino}-4-pyrimidinyl)-2-(1-methylethyl)-1,3-thiazol-4-yl]phenyl}-2-fluorobenzenesulfonamide] | > 7.00 | 6.00 to 7.00
8 | CC(C)c1nc(-c2cccc(NS(=O)(=O)c3c(F)cccc3F)c2)c(-c2ccnc(Nc3ccc(OC4CCN(CCS(C)(=O)=O)CC4)c(F)c3)n2)s1 [Example 13, 2,6-Difluoro-N-{3-[5-(2-{[3-fluoro-4-({1-[2-(methylsulfonyl)ethyl]-4-piperidinyl}oxy)phenyl]amino}-4-pyrimidinyl)-2-(1-methylethyl)-1,3-thiazol-4-yl]phenyl}benzenesulfonamide hydrochloride] | 6.00 to 7.00 | < 6.00
9 | CC(C)c1nc(-c2cccc(NS(=O)(=O)c3c(F)cccc3F)c2)c(-c2ccnc(Nc3ccc(N4CCOCC4)c(C(=O)O)c3)n2)s1 [Example 14, 5-({4-[4-(3-{[(2,6-Difluorophenyl)sulfonyl]amino}phenyl)-2-(1-methylethyl)-1,3-thiazol-5-yl]-2-pyrimidinyl}amino)-2-(4-morpholinyl)benzoic acid] | 6.00 to 7.00 | < 6.00
10 | CC(C)c1nc(-c2cncc(NS(=O)(=O)c3c(F)cccc3F)c2)c(-c2ccnc(Nc3ccc(N4CCOCC4)nc3)n2)s1 [Example 47] | < 6.00 | 
